In the assay the target is T1, Avi-tagged FL MALT-1 (Homo sapiens, UniProt Q9UDY8).
T1 construct: Avi-tagged FL MALT-1 (Pharmaron, stored at −70° C.); Avi-tag; purchased Pharmaron
T1 sequence (Q9UDY8 1-824): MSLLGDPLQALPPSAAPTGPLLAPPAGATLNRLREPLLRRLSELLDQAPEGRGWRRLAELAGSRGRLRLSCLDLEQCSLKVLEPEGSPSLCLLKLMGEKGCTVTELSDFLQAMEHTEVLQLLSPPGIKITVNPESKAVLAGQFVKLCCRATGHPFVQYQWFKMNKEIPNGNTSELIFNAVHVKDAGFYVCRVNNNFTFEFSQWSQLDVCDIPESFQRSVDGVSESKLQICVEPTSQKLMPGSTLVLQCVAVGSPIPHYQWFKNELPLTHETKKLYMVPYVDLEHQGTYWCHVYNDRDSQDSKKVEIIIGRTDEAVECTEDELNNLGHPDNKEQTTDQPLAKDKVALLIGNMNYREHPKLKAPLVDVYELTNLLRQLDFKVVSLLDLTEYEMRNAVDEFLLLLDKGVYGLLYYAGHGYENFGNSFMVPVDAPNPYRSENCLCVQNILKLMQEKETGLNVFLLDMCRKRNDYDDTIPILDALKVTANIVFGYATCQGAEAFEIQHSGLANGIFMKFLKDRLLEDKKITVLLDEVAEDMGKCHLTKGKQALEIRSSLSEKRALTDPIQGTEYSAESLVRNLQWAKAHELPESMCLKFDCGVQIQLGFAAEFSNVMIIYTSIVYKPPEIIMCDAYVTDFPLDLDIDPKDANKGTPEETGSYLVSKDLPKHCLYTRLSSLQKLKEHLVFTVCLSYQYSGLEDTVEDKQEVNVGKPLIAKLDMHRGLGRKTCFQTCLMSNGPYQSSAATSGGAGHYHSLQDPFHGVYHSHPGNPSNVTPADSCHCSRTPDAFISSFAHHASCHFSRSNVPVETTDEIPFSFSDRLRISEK
Put plainly: MALT-1 Fluorogenic Peptide Cleavage Assay (MALT1 inhibition assay). It counts as biochemical. As to conditions: Ac-LRSR-AMC peptide substrate; 30 min pre-incubation, 90 min reaction at room temperature; fluorescence. In short, it runs like this: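 Full-length Avi-tagged enzyme preincubated 30 min at room temperature with compound (2% DMSO final) in HEPES pH 6.89 buffer with sodium citrate, TCEP, EDTA and CHAPS. Ac-LRSR-AMC substrate added at Km or 10×Km (working stocks 50 or […] μM); fluorescence (ex 342/em 441 nm) after 90 min; IC50 from sigmoidal fit.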

`Cc1cc(NC(=O)c2snc(-c3cccn4nccc34)c2C2CC2)ccn1` [I-211, 4-cyclopropyl-N-(2-methylpyridin-4-yl)-3-(pyrazolo[1,5-a]pyridine-4-yl)isothiazole-5-carboxamide] displayed a 50% inhibitory concentration (IC50) of at most 400 nM. Then `Cc1cccnc1-c1nsc(C(=O)Nc2cnc(-n3nccn3)c(C#N)c2)c1C1CC1` [I-112], with at most 400 nM.

Consider `Cc1cc(NC(=O)c2snc([C@@H]3CCOC3)c2C2CC2)ccn1` [I-201, (S)-4-cyclopropyl-N-(2-methylpyridin-4-yl)-3-(tetrahydrofuran-3-yl)isothiazole-5-carboxamide], for which the IC50 is over 2500 nM. Take `CN1CCN(c2ncc(NC(=O)c3snc(-c4ccccc4)c3C3CC3)cc2C#N)CC1` [I-54, N-(5-CYANO-6-(4-METHYLPIPERAZIN-1-YL) PYRIDIN-3-YL)-4-CYCLOPROPYL-3-PHENYLISOTHIAZOLE-5-CARBOXAMIDE]: the IC50 was at most 400 nM. Then `O=C(Nc1ccnc(C(F)(F)F)c1)c1snc(-c2ccncc2)c1C1CC1` [I-184, 4-cyclopropyl-3-(pyridin-4-yl)-N-(2-(trifluoromethyl)pyridin-4-yl)isothiazole-5-carboxamide], with at most 400 nM; and `O=C(Nc1cnc(-n2nccn2)c(Cl)c1)c1snc(-c2ncccc2Cl)c1C(F)(F)F` [I-19, N-(5-CHLORO-6-(2H-1,2,3-TRIAZOL-2-YL) PYRIDIN-3-YL)-3-(3-CHLOROPYRIDIN-2-YL)-4-(TRIFLUOROMETHYL) ISOTHIAZOLE-5-CARBOXAMIDE], with at most 400 nM; and `Cc1cncc(-c2nsc(C(=O)Nc3ccnc(C(F)(F)F)c3)c2C2CC2)c1` [I-167, 4-cyclopropyl-3-(5-methylpyridin-3-yl)-N-(2-(trifluoromethyl)pyridin-4-yl)isothiazole-5-carboxamide], with 400 to 1000 nM. With `O=C(Nc1ccnc(C(F)(F)F)c1)c1snc([C@@H]2CCOC2)c1C1CC1` [I-204, (S)-4-cyclopropyl-3-(tetrahydrofuran-3-yl)-N-(2-(trifluoromethyl)pyridin-4-yl)isothiazole-5-carboxamide] the figure was over 2500 nM; with `N#Cc1cc(NC(=O)c2snc(-c3cccc4ncoc34)c2C2CC2)cnc1-n1nccn1` [I-109], at most 400 nM. `O=C(Nc1ccc(C(=O)N2CC(O)C2)c(Cl)c1)c1snc(-c2ncccc2Cl)c1C1CC1` [I-49, N-(3-CHLORO-4-(3-HYDROXYAZETIDINE-1-CARBONYL)PHENYL)-3-(3-CHLOROPYRIDIN-2-YL)-4-CYCLOPROPYL-ISOTHIAZOLE-5-CARBOXAMIDE] displayed an IC50 of 1000 to 2500 nM. Then `Cn1nc2cccc(-c3nsc(C(=O)Nc4ccnc(C(F)(F)F)c4)c3C3CC3)c2n1` [I-207, 4-cyclopropyl-3-(2-methyl-2H-benzo[d][1,2,3]triazol-4-yl)-N-(2-(trifluoromethyl)pyridin-4-yl)isothiazole-5-carboxamide], with at most 400 nM; and `Cc1noc(C)c1-c1nsc(C(=O)Nc2ccnc(C(F)(F)F)c2)c1C1CC1` [I-197, 4-cyclopropyl-3-(3,5-dimethylisoxazol-4-yl)-N-(2-(trifluoromethyl)pyridin-4-yl)isothiazole-5-carboxamide], with at most 400 nM; and `O=C(Nc1cnc(C(=O)N2CC(O)C2)c(Cl)c1)c1snc(-c2ccccc2)c1C1CC1` [I-58, N-(5-CHLORO-6-(3-HYDROXYAZETIDINE-1-CARBONYL)PYRIDIN-3-YL)-4-CYCLOPROPYL-3-PHENYLISOTHIAZOLE-5-CARBOXAMIDE], with at most 400 nM.

For `CC(C)c1nsc(C(=O)Nc2ccnc(C(F)(F)F)c2)c1C1CC1` [I-124], the half-inhibitory concentration (IC50) lay in the range of 1000 to 2500 nM.

`CC(=O)Nc1ccc(-c2nsc(C(=O)Nc3ccnc(C(F)(F)F)c3)c2C2CC2)cc1` [I-148, 3-(4-acetamidophenyl)-4-cyclopropyl-N-(2-(trifluoromethyl)pyridin-4-yl)isothiazole-5-carboxamide] yielded an IC50 of 400 to 1000 nM. With `O=C(Nc1ccnc(C(F)(F)F)c1)c1snc(-c2cncnc2)c1C1CC1` [I-144, 4-cyclopropyl-3-(pyrimidin-5-yl)-N-[2-(trifluoromethyl)pyridin-4-yl]-1,2-thiazole-5-carboxamide] the figure was at most 400 nM. Then `CN1CCC(c2nsc(C(=O)Nc3cnc(-n4nccn4)c(C#N)c3)c2C2CC2)CC1` [I-122], with over 2500 nM; and `O=C(Nc1ccnc(C(F)(F)F)c1)c1snc(-c2ccn3ccnc3c2)c1C1CC1` [I-185, 4-cyclopropyl-3-(imidazo[1,2-a]pyridin-7-yl)-N-(2-(trifluoromethyl)pyridin-4-yl)isothiazole-5-carboxamide], with 1000 to 2500 nM; and `O=C(Nc1ccc(C(=O)N2CC(O)C2)nc1)c1snc(-c2ccccc2)c1C1CC1` [I-59, 4-CYCLOPROPYL-N-(6-(3-HYDROXY-AZETIDINE-1-CARBONYL)PYRIDIN-3-YL)-3-PHENYLISOTHIAZOLE-5-CARBOXAMIDE], with over 2500 nM.

`COc1ncc(NC(=O)c2snc(-c3ccccc3)c2C2CC2)cc1Cl` [I-40, N-(5-CHLORO-6-METHOXYPYRIDIN-3-YL)-4-CYCLOPROPYL-3-PHENYLISOTHIAZOLE-5-CARBOXAMIDE] showed an IC50 of at most 400 nM.

The compound `O=C(Nc1ccnc(C(F)(F)F)c1)c1snc(-c2ccccc2F)c1C1CC1` [I-147, 4-cyclopropyl-3-(2-fluorophenyl)-N-[2-(trifluoromethyl)pyridine-4-yl]-1,2-thiazole-5-carboxamide] yielded an IC50 of at most 400 nM. With `O=C(Nc1ccnc(C(F)(F)F)c1)c1snc(-c2ccc(Cl)cc2)c1C1CC1` [I-136, 3-(4-chlorophenyl)-4-cyclopropyl-N-[2-(trifluoromethyl)pyridin-4-yl]-1,2-thiazole-5-carboxamide] the figure was at most 400 nM; with `Cc1ncccc1-c1nsc(C(=O)Nc2ccnc(C(F)(F)F)c2)c1C1CC1` [I-171, 4-cyclopropyl-3-(2-methylpyridin-3-yl)-N-[2-(trifluoromethyl)pyridin-4-yl]-1,2-thiazole-5-carboxamide], at most 400 nM. With `Cc1cc(NC(=O)c2snc(-c3cccc4ncccc34)c2C2CC2)ccn1` [I-199, 4-cyclopropyl-N-(2-methylpyridin-4-yl)-3-(quinolin-5-yl)isothiazole-5-carboxamide] the figure was at most 400 nM; with `Cc1ccc(-c2nsc(C(=O)Nc3ccnc(C(F)(F)F)c3)c2C2CC2)c2cccnc12` [I-140, 4-cyclopropyl-3-(8-methylquinolin-5-yl)-N-[2-(trifluoromethyl)pyridin-4-yl]-1,2-thiazole-5-carboxamide], at most 400 nM; with `CN1Cc2cc(NC(=O)c3snc(-c4ccccc4)c3C3CC3)cnc2C1=O` [I-111], over 2500 nM. With `Cc1cc(NC(=O)c2snc(-c3ccccc3)c2C2CC2)cnc1-n1ccnn1` [I-48, 4-CYCLOPROPYL-N-(5-METHYL-6-(1H-1,2,3-TRIAZOL-1-YL)PYRIDIN-3-YL)-3-PHENYLISOTHIAZOLE-5-CARBOXAMIDE] the figure was at most 400 nM. Turning to `N#Cc1cc(NC(=O)c2snc(C3CCOC3)c2C2CC2)cnc1-n1nccn1` (stereo not drawn) [I-110], the IC50 was in the range of 400 to 1000 nM. With `Cc1cc(NC(=O)c2snc(-c3ccccc3)c2C2CC2)cnc1-n1nccn1` [I-12, 4-CYCLOPROPYL-N-(5-METHYL-6-(2H-1,2,3-TRIAZOL-2-YL)PYRIDIN-3-YL)-3-PHENYLISOTHIAZOLE-5-CARBOXAMIDE], the IC50 is at most 400 nM. With `CCc1c(-c2ccccc2)nsc1C(=O)Nc1cnc(-n2nccn2)c(Cl)c1` [I-11, N-(5-CHLORO-6-(2H-1,2,3-TRIAZOL-2-YL) PYRIDIN-3-YL)-4-ETHYL-3-PHENYLISOTHIAZOLE-5-CARBOXAMIDE] the figure was at most 400 nM; with `O=C(Nc1ccnc(C(F)(F)F)c1)c1snc(-c2ccncc2F)c1C1CC1` [I-155, 4-cyclopropyl-3-(3-fluoropyridin-4-yl)-N-[2-(trifluoromethyl)pyridin-4-yl]-1,2-thiazole-5-carboxamide], at most 400 nM; with `N#Cc1cc(NC(=O)c2snc(-c3cccc4nccn34)c2C2CC2)cnc1-n1nccn1` [I-131, N-(5-cyano-6-(2H-1,2,3-triazol-2-yl)pyridin-3-yl)-4-cyclopropyl-3-(imidazo[1,2-a]pyridin-5-yl)isothiazole-5-carboxamide], at most 400 nM. Then `Cc1cn(C)nc1-c1nsc(C(=O)Nc2cnc(-n3nccn3)c(C#N)c2)c1C1CC1` [I-116], with at most 400 nM.

A word on the IC50: it is the concentration at which inhibition is half-maximal. A low value points to greater potency.

For the origin of these results see patent US20260124222A1, “ISOTHIAZOLYLCARBOXAMIDE COMPOUNDS AND THEIR USE IN THERAPY” (HOTSPOT THERAPEUTICS, INC., priority 2022, published 2026).
